Where “and” joins values, the source holds several entries; their conditions need not be identical. Equal values may be shown once.
Details: Liquid, Transpiration method

C[C@H](O)CO [(+)-(S)-1,2-propanediol]
Details | vapor or sublimation pressure
283.5 K | 0.00427 kPa
288.2 K | 0.00685 kPa
293.5 K | 0.01187 kPa and 0.00968 kPa
297.4 K | 0.01371 kPa
298.2 K | 0.01924 kPa
298.4 K | 0.01891 kPa
301.3 K | 0.025 kPa
301.4 K | 0.01968 kPa
303.3 K | 0.02341 kPa
303.4 K | 0.02968 kPa
305.4 K | 0.02776 kPa
306.3 K | 0.03848 kPa
306.4 K | 0.0369 kPa
309.3 K | 0.04816 kPa
310.4 K | 0.05059 kPa and 0.04222 kPa and 0.04205 kPa
312.3 K | 0.06434 kPa and 0.06424 kPa
313.2 K | 0.06711 kPa
313.3 K | 0.06784 kPa
313.4 K | 0.05485 kPa
315.4 K | 0.06624 kPa
316.2 K | 0.09048 kPa
316.3 K | 0.08971 kPa and 0.0869 kPa
318.3 K | 0.09934 kPa
318.4 K | 0.08522 kPa
319.3 K | 0.113 kPa
320.4 K | 0.1173 kPa and 0.09922 kPa
320.5 K | 0.09891 kPa
321.3 K | 0.1276 kPa
322.3 K | 0.1391 kPa
322.5 K | 0.1397 kPa
323.4 K | 0.1284 kPa
323.5 K | 0.1563 kPa and 0.1318 kPa
324.5 K | 0.1349 kPa
325.3 K | 0.1747 kPa and 0.1406 kPa
325.4 K | 0.1734 kPa
326.4 K | 0.1847 kPa
326.5 K | 0.1504 kPa
327.3 K | 0.1676 kPa
327.4 K | 0.1988 kPa
328.3 K | 0.2178 kPa
328.4 K | 0.184 kPa
328.5 K | 0.1824 kPa
328.6 K | 0.2155 kPa
329.5 K | 0.2399 kPa
331.3 K | 0.2757 kPa
331.4 K | 0.2346 kPa
333.3 K | 0.2616 kPa
335.4 K | 0.303 kPa
338.4 K | 0.3685 kPa

From the NIST ThermoML archive (doi:10.1016/j.jct.2009.04.019)
